In one data set the target is T1, CRBN (Homo sapiens, UniProt Q96SW2).
T1 construct: endogenous in cells; host or cells: Flp-In 293 cells stably expressing BRD4BD2-eGFP and mCherry
The data set can be described thus: Cellular CRBN engagement assay (competition with dBET6, BRD4BD2-eGFP reporter). In kind it is cell-based. The conditions noted are these: FIG. 1; for cell permeability (from cellular CRBN engagement): Flp-In 293 reporter cells; for IC50: competition with 100 nM dBET6, 5 h, Flp-In 293 cells expressing BRD4BD2-eGFP and mCherry. On the procedure:
BRD4BD2 was subcloned into mammalian pcDNA5/FRT Vector (Ampicillin and Hygromycin B resistant) modified to contain MCS-eGFP-P2A-mCherry. Stable cell lines expressing eGFP-protein fusion and mCherry reporter were generated using Flp-In™ 293 system. Plasmid (0.3 μg) and pOG44 (4.7 μg) DNA were preincubated in 100 μL of Opti-MEM™ I (Gibco™, Life Technologies™) media containing 0.05 mg/ml Lipofectamine 2000 (Invitrogen™) for 20 min and added to Flp-In™ 293 cells containing 1.9 ml of Dulbecco's Modified Eagle Medium (DMEM) media (Gibco™, Life Technologies™) per well in a 6-well plate format (Falcon, 353046). Cells were propagated after 48 h and transferred into a 10 cm^2 plate (Corning®, 430165) in DMEM media containing 50 μg/ml of Hygromycin B (Invitrogen™, REF 10687010) as a selection marker. Following 2-3 passage cycles, FACS (FACSAria™ II, BD) was used to enrich for cells expressing eGFP and mCherry.
Stable cells expressing the BRD4BD2-eGFP protein fusion and the mCherry reporter were seeded at a density of 1000-4000 cells/well in a 384-well plate with 50 μL per well of FluoroBrite™ DMEM media (Thermo Fisher Scientific, A18967) supplemented with 10% FBS a day before compound treatment. Compounds and 100 nM dBET6 were dispensed using a D300e Digital Dispenser (HP), normalized to 0.5% DMSO, and incubated with the cells for 5 h. The assay plate was imaged immediately using an acument High Content Imager (TTP Labtech) with 488 nm and 561 nm lasers in a […] grid per well format. The resulting images were analyzed using CellProfiler™ (Carpenter et al., Genome Biol. 7(10):R100 (2006)). A series of image analysis steps (an ‘image analysis pipeline’) was constructed. First, the red and green channels were aligned and cropped to target the middle of each well (to avoid analysis of the heavily clumped cells at the edges). A background illumination function was calculated for both red and green channels of each well individually and subtracted to correct for illumination variations across the 384-well plate from various sources of error. An additional step was then applied to the green channel to suppress the analysis of large auto fluorescent artifacts and enhance the analysis of cell specific fluorescence by way of selecting for objects under a given size (30 A.U.) and with a given shape (speckles). mCherry-positive cells were then identified in the red channel by filtering for objects 8-60 pixels in diameter and by using intensity to distinguish between clumped objects. […] The fraction of GFP-positive cells/mCherry-positive cells in each well was then calculated, and the green and red images were rescaled for visualization. […]

The next data set concerns the target HDAC5 (Homo sapiens, UniProt Q9UQL6). Put plainly: In vitro HDAC enzymatic assay (Reaction Biology). The class given is biochemical. On the set-up: purchased Reaction Biology (Devault, PA). Conditions: dose response, FIG. 2A-2B.
Another data set has as its target T2, HDAC7 (Homo sapiens, UniProt Q8WUI4).
T2 sequence (Q8WUI4 1-952): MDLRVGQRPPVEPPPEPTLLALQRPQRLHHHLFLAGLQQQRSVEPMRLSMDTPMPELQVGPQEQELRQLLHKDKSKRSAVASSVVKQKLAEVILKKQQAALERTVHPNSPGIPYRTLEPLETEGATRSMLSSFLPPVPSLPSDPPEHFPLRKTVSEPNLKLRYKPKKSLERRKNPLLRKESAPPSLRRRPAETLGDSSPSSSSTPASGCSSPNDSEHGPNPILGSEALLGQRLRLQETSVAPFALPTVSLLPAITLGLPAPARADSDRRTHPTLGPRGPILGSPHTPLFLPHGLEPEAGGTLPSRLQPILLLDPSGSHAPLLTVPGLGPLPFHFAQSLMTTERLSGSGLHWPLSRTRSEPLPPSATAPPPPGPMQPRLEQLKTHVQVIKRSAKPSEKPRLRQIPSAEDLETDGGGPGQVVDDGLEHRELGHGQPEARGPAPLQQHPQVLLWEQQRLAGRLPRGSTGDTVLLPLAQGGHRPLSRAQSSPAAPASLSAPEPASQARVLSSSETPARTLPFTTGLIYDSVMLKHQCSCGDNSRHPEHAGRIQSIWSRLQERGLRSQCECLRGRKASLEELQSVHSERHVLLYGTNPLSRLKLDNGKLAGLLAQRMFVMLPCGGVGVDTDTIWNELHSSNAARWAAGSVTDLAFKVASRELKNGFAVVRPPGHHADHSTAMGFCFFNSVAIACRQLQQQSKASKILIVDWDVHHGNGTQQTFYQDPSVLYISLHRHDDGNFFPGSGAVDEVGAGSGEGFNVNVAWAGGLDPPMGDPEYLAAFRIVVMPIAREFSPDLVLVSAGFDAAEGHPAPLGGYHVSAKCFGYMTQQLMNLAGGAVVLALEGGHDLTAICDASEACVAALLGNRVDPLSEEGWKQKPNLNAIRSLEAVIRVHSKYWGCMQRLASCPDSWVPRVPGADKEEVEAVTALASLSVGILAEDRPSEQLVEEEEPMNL
Put plainly: In vitro HDAC enzymatic assay (Reaction Biology). In kind it is biochemical. On the set-up: purchased Reaction Biology (Devault, PA). The conditions noted are these: dose response, FIG. 2A-2B.

Another data set has as its target T3, HDAC9 (Homo sapiens, UniProt Q9UKV0).
T3 construct: purchased Reaction Biology (Devault, PA)
Put plainly: In vitro HDAC enzymatic assay (Reaction Biology). The conditions noted are these: dose response, FIG. 2A-2B. In kind it is biochemical.

The target of a further data set is HDAC4 (Homo sapiens, UniProt P56524). The data set can be described thus: In vitro HDAC enzymatic assay (Reaction Biology). In kind it is biochemical. On the set-up: purchased Reaction Biology (Devault, PA). Conditions: dose response, FIG. 2A-2B.

These results are taken from US20240246956A1, “CLASS IIA HISTONE DEACETYLASE (HDAC) DEGRADER LIGANDS AND METHODS OF USE THEREOF” (DANA-FARBER CANCER INSTITUTE, INC., priority 2021, published 2024).

As a reminder, the IC50 is the concentration needed to halve the response being measured. A low value points to inhibition by little substance.

As for `O=C1CCC(N2C(=O)c3cccc(NCCCCCCN4CCC(CNC(=O)c5cccc(-c6noc(C(F)(F)F)n6)c5)(c5nc(-c6ccccc6)cs5)CC4)c3C2=O)C(=O)N1` (stereo not drawn) [Compound 1], at CRBN, the “cell permeability (from cellular CRBN engagement)” value is recorded as “cell permeable” and the half-inhibitory concentration (IC50) came to 0.14 µM. On HDAC5, the “inhibition of HDAC5” value is given as “inhibited”. In addition, on HDAC7, the “inhibition of HDAC7” value was “inhibited”. The “inhibition of HDAC9” value against HDAC9 is on record as “inhibited”. Moreover, the “inhibition of HDAC4” value on HDAC4 is “inhibited”.
For the molecule `CCN(CCNc1cccc2c1C(=O)N(C1CCC(=O)NC1=O)C2=O)C[C@@H](C)NC(=O)c1ccc(-c2noc(C(F)(F)F)n2)cc1` (stereo partly drawn) [Compound 16, N-((2R)-1-((2-((2-(2,6-dioxopiperidin-3-yl)-1,3-dioxoisoindolin-4-yl)amino)ethyl)(ethyl)amino)propan-2-yl)-4-(5-(trifluoromethyl)-1,2,4-oxadiazol-3-yl)benzamide], on CRBN, the “cell permeability (from cellular CRBN engagement)” value was “cell permeable” and the IC50 was found to be 6.98 µM. Besides, the “inhibition of HDAC5” value against HDAC5 is “inhibited”. Besides, the “inhibition of HDAC7” value on HDAC7 is given as “inhibited”. The “inhibition of HDAC9” value at HDAC9 is on record as “inhibited”. For the same molecule, at HDAC4, the “inhibition of HDAC4” value was “inhibited”.
